The text below walks through data of the METLIN SMRT retention time set (Domingo-Almenara et al. 2019).

The nature of this data set: gradient 5% acetonitrile 3 min, to 50% in 2 min, to 85% in 15 min, held 3 min, 100 µL/min. As to conditions: column: Zorbax Extend-C18 2.1 x 50 mm; eluents: water / acetonitrile, 0.1% formic acid. The method, boiled down: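 Pure standards were run in mixtures of ~100 molecules by HPLC coupled to a quadrupole time-of-flight mass spectrometer. The column was a Zorbax Extend-C18 (2.1 × 50 mm, 1.8 μm) at 100 μL/min, with water and acetonitrile each containing 0.1% formic acid, in positive and negative ionization mode. Dead and dwell volumes were 40 μL and 900 μL. Retention time was taken from computationally picked adduct peaks, each manually inspected, with data collected over 3 months.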
`CCc1nn2c(CNS(=O)(=O)c3ccc(C)c(C)c3)c(-c3ccccc3)nc2s1` showed an RP-LC retention time of 984 s. In the case of `CN1c2cc(F)ccc2C(=O)NC12CCN(C(=O)Cc1ccc(Cl)cc1)CC2`, the RP-LC retention time amounted to 919 s. `Cc1cc(-c2nnc(-c3ccccc3)o2)c(C)n1CC(=O)Nc1cccc(F)c1` showed an RP-LC retention time of 938 s. Under `COCC1CN(Cc2cn[nH]c2-c2ccc(OC)cc2)CCC1(F)F` (stereo unspecified) stands 624 s; under `COCCCNC(=O)N1CCCC1c1ccccc1Cl` (stereo unspecified), 797 s. Consider `COC(=O)c1cnc2nc(C)ccc2c1Nc1ccc(F)c(Cl)c1`, for which the RP-LC retention time came to 717 s.

Regarding `CC(=O)c1cccc(S(=O)(=O)NCC2CCN(C(=O)c3cc4ccccc4o3)CC2)c1`, the RP-LC retention time turned out to be 781 s. `COc1ccc(C(=O)N2CCCC2c2nc(-c3ccc(OC)cc3)no2)cc1` (stereo unspecified) displayed an RP-LC retention time of 957 s. For `Cc1ccccc1CNC(=O)CN1CCN(Cc2cccc(Cl)c2)C1=O` the value was 880 s; for `CSc1cccc(N2C=C(C#N)S(=O)(=O)c3ccc(Cl)cc32)c1`, 961 s; for `Cc1nc(C)c(C(=O)Nc2nc(-c3ccc(F)cc3)c(C)s2)s1`, 956 s. For `COc1ccc(-c2ccc(=O)n(Cc3nc(-c4ccccc4)no3)n2)cc1OC`, the RP-LC retention time was found to be 900 s. In turn, `Cc1nn(C)cc1C(C)NC(=O)C1CCN(c2cnn(Cc3ccccc3)c(=O)c2)CC1` (stereo unspecified) came in with an RP-LC retention time of 652 s. The molecule `O=C(O)c1cc2ccccc2cc1Nc1ccccc1` yielded an RP-LC retention time of 1140 s.

Turning to `O=C([C@@H]1C[C@H](F)CN1C(=O)Nc1cc(F)cc(F)c1)N1CCCCC1`, the RP-LC retention time was determined as 766 s.

For `O=C(Nc1ccc(F)cc1)N1CCC(N2CC(F)(F)C[C@H]2COCC2CC2)CC1`, the RP-LC retention time turned out to be 699 s. Molecule `CCCn1cc(S(=O)(=O)Nc2cc(F)ccc2F)c2cccnc21` gave an RP-LC retention time of 890 s. Consider `Cc1nn(CC(=O)NCCCN2CCc3ccccc3C2)c(=O)c2noc(C)c12`, for which the RP-LC retention time came out at 597 s. Under `COc1ccc(-c2cn3c(CC(=O)Nc4cc(F)ccc4F)csc3n2)cc1OC` stands 744 s; under `Cc1cc(C)cc(Nc2nc3ccncc3n(Cc3ccccc3)c2=O)c1`, 817 s; under `CSc1ncccc1C(=O)Nc1cccc(OCc2nnc(-c3ccccc3)o2)c1`, 908 s.

As to `CS(=O)(=O)N1CCOc2ccc(CCC(N)=O)cc2C1`, the RP-LC retention time amounted to 628 s.

In turn, `O=C(c1c[nH]c2ccccc12)N1CCN(c2cc(-c3cccs3)[nH]n2)CC1` returned an RP-LC retention time of 731 s.

For `CC(=O)Nc1cc(C(=O)NC2CCCC2)c2ccc(C)nc2c1`, the RP-LC retention time was 600 s. Consider `CCCN(C(=O)c1ccc(C)cc1)c1nc(-c2ccccc2)cs1`, for which the RP-LC retention time came to 809 s.

Molecule `CCCn1c(=O)sc2cc(S(=O)(=O)N3CCC(C(=O)Nc4ccc(OC)cc4)CC3)ccc21` showed an RP-LC retention time of 918 s. Molecule `CCOc1ccc(C2Cn3nnc(-c4nc(-c5cccc(F)c5)no4)c3CO2)cc1` (stereo unspecified) displayed an RP-LC retention time of 1220 s. In turn, `COc1ccc(CNC(=O)c2c(C)sc3ccn(CC(C)C)c(=O)c23)cc1OC` yielded an RP-LC retention time of 865 s. Under `CN(C)S(=O)(=O)N1CC(c2nc(Cc3cccnc3)no2)C1` stands 543 s; under `Cn1c(=O)c2cc(C(=O)NCC3CCCCC3)nn2c2ccccc21`, 957 s. In turn, `Cc1cc(C(=O)NCC(c2cn(C)c3ccccc23)N(C)C)no1` (stereo unspecified) returned an RP-LC retention time of 557 s. `O=C(Nc1ccc(Cl)cc1F)NC1CCN(c2cc(N3CCOCC3)cnn2)C1` (stereo unspecified): the RP-LC retention time is 649 s. For `COc1ccc(S(=O)(=O)N2C[C@H]3CN(C(=O)NCC(C)C)C[C@@H](C2)O3)cc1` the value was 729 s.

For the molecule `O=C(CN1C(=O)CCc2cc(Br)ccc21)N1CCN(c2ccccc2)CC1`, the RP-LC retention time stood at 913 s. In the case of `Cc1cc(NC(=O)N2CCC(CN3CCCC(C)C3)CC2)ccc1Br` (stereo unspecified), the RP-LC retention time is 682 s. Under `CCOC(=O)Nc1ccc2nc(N3CCCCCC3)sc2c1` stands 798 s. As for `O=C1CC(c2noc(-c3ccc4c(c3)OCO4)n2)CN1c1ccc(F)cc1` (stereo unspecified), the RP-LC retention time is 1200 s. `O=C(Nc1nc(-c2nc3ccccc3s2)cs1)c1c(F)cccc1F` yielded an RP-LC retention time of 920 s.

Consider `Cc1noc2ncnc(N3CCCC(C(=O)N4CCN(c5ccc(F)cc5)CC4)C3)c12` (stereo unspecified), for which the RP-LC retention time was 846 s. With `CCc1nc(OCC(=O)Nc2ccc(C)c(F)c2)c2ccccc2n1`, the RP-LC retention time is 872 s. `CCOc1ccc(S(=O)(=O)NCCn2nc(C)cc2C)cc1F`: the RP-LC retention time is 731 s.

The molecule `CSc1cccc(NC(=O)Cc2csc(SCC(=O)Nc3ccc(C)cc3)n2)c1` displayed an RP-LC retention time of 900 s. For the molecule `Nc1nc(-c2ccccc2)c(C(=O)Nc2ccccc2)s1`, the RP-LC retention time is 706 s. Under `COC(=O)c1cc(OCC(=O)Nc2ccc3c(c2)OCO3)c2cc(C)ccc2n1` stands 821 s. For `CN(C)c1ccc(CNC(=O)c2nnc(-c3ccc(S(=O)(=O)N4CCCCC4)cc3)o2)cc1` the value was 754 s; for `COCCN1C(=O)[C@H]2CN(Cc3cccnc3)C[C@H]2C1=O`, 528 s. Take `O=C(NCc1ccc(-c2noc(Cc3ccccc3F)n2)s1)C1CC1`: the RP-LC retention time was found to be 868 s. Consider `Cc1cccc(N(C)C(=O)Cn2nc3nc(N4CCCC(C)C4)ccn3c2=O)c1` (stereo unspecified), for which the RP-LC retention time stood at 808 s. In turn, `COCCc1nncn1C1CCN(S(=O)(=O)c2ccccc2C(F)(F)F)CC1` returned an RP-LC retention time of 720 s. For `CN1CCc2nnc(C3CCN(C(=O)Nc4ccc(Cl)cc4F)C3)n2CC1` (stereo unspecified) the value was 573 s. As for `Cc1cccc(CNC(=O)c2cc3c(-c4cccs4)nn(-c4ccccc4)c3n2C)c1`, the RP-LC retention time worked out at 1200 s. In turn, `CCOC(=O)Cn1cc(S(=O)(=O)N2CCCC2)ccc1=O` gave an RP-LC retention time of 696 s. Turning to `COc1ccccc1CC(=O)N1CCCn2nc(-c3ccc(Cl)cc3)cc2C1`, the RP-LC retention time amounted to 1010 s. Under `CCCn1cc(CCNS(=O)(=O)c2c(C)noc2C)c2cccnc21` stands 779 s; under `Cc1cc2oc(C(=O)NCC(c3ccccc3)N(C)C)cc(=O)c2cc1C` (stereo unspecified), 639 s; under `O=C(Cn1c(=O)c(CCC(=O)NC2CCCC2)nc2ccccc21)Nc1ccc(F)c(F)c1`, 825 s. In the case of `COc1ccc(CN2C(=O)COC[C@H]2C(=O)NCC2CC2)c(OC)c1`, the RP-LC retention time was 696 s. Molecule `Cc1ccc(-c2cc(C(=O)NC3CCC(C)CC3)c(C)[nH]2)cc1` (stereo unspecified) yielded an RP-LC retention time of 1050 s.

As to `CCCn1cc(C(=O)Nc2ccc(OC)cc2C)c(=O)c2ccc(C)nc21`, the RP-LC retention time stood at 1130 s. The molecule `O=C(NC1CCCN(c2cc(-c3ccccc3)[nH]n2)C1)c1ccc2c(c1)OCO2` (stereo unspecified) returned an RP-LC retention time of 760 s. The molecule `Cc1cc(C)cc(NC(=O)c2[nH]c(C)c(S(=O)(=O)N3CCCC3)c2C)c1` displayed an RP-LC retention time of 950 s.

In turn, `O=C(Nc1ccccc1Cl)C1=Cc2ccccc2OC1` gave an RP-LC retention time of 975 s. Consider `CCOC(=O)c1c(S(=O)(=O)N2CCC(C(=O)NCc3cccs3)CC2)c(C)n(C)c1C`, for which the RP-LC retention time turned out to be 774 s.

As for `CCc1nn2c(CNS(=O)(=O)c3cc(C)cc(C)c3)c(-c3ccccc3)nc2s1`, the RP-LC retention time stood at 941 s. Consider `Nc1ccc(C(=O)c2ccccc2)cc1[N+](=O)[O-]`, for which the RP-LC retention time was 783 s.

`Cc1ccc2c(c1)N(Cc1ccccc1)N=C(C(=O)N1CCCC1)S2(=O)=O` returned an RP-LC retention time of 876 s. For `COc1cccc(CN2CCC3(CC2)CC(O)CCO3)n1` (stereo unspecified) the value was 572 s; for `COCCNC(=O)C1c2ccccc2C(=O)N(C)C1c1cccs1` (stereo unspecified), 679 s; for `CC(NS(=O)(=O)c1ccc(Cl)c(-c2nnc(-c3ccccc3)o2)c1)C(=O)O` (stereo unspecified), 819 s. With `Cc1nn(-c2ccc(Cl)cc2)c(C)c1S(=O)(=O)N1CCN(c2ccccn2)CC1`, the RP-LC retention time came to 747 s. Molecule `COC(=O)c1ccc(CSc2ccc(NC(=O)c3cccs3)nn2)o1` yielded an RP-LC retention time of 820 s. Under `CCc1nnc(-c2ccc(S(=O)(=O)N3CCN(C(C)C)CC3)o2)o1` stands 592 s; under `CCOC(=O)N1CCN(c2ncc(S(=O)(=O)c3ccc(Cl)cc3)c(N)n2)CC1`, 910 s. In the case of `Cc1ccc(-n2cc(C(=O)Oc3cccnc3)c3ccccc3c2=O)cc1`, the RP-LC retention time stood at 978 s. The molecule `Cc1nc(-c2cccc(NC(=O)c3coc(NC(=O)c4ccco4)n3)c2)cs1` yielded an RP-LC retention time of 688 s. `Cn1ncc2c3ccccc3n(CC(=O)NCCc3c[nH]c4ccc(Cl)cc34)c2c1=O` returned an RP-LC retention time of 860 s.

In turn, `CC(=O)NCc1csc(C2CCN(C(=O)COc3ccccc3)CC2)n1` came in with an RP-LC retention time of 646 s. Under `O=S(=O)(c1ccc(Cl)s1)N1CCC(c2nnc(-c3ccco3)o2)CC1` stands 868 s. Regarding `CCC(C(=O)NCCOC)n1nc(C)c2sc3ccccc3c2c1=O` (stereo unspecified), the RP-LC retention time stood at 826 s.

As for `CCC1(O)CCOC2(CCN(C(=O)C3CC=CC3)CC2)C1` (stereo unspecified), the RP-LC retention time amounted to 686 s. `COCCN1C(=O)Cc2ccccc2C1C(=O)NCc1ccc(C(C)C)cc1` (stereo unspecified) yielded an RP-LC retention time of 861 s.
